Entries after “also recorded” stand apart in the source; their conditions may differ.
Columns and labels:
5TGM1-luc cells = assay: Immunocompetent systemic mouse myeloma model (5TGM1-luc); type: in vivo; conditions: for anti-MM activity in vivo (imaging, time to death or euthanasia): albumin-based solutions, CCF642 IV then IP 1-12 mg/kg, CCF1172 IP three times a week 22 then 44 mg/kg; for adverse events by clinical observations and weekly weight measurements: three times a week clinical observations, increasing doses
Procedure: C57BL/KaLwRij mice were injected with 4×10^6 5 TGM1-luc cells per mouse via the tail vein. The next day, treatments were started. Compounds were diluted from DMSO stock into aqueous bovine serum albumin (Sigma, cat. # A7030) solution, supplemented, after compound addition, with NaCl to a final NaCl concentration of 150 mM. In this pilot experiment we aimed to evaluate general tolerance and activity using increasing doses. CCF642 was given in 10% BSA IV twice a week for the first three weeks followed by IP three times a week. IV doses started with 1 mg/kg (3% DMSO) and increased by 1 mg/kg per week (6% DMSO in the second and 10% DMSO in the third week). IP doses started with 6 mg/kg in week 4 and from week 5 onwards used 12 mg/kg (10% DMSO in both). CCF1172 (obtained from SPECS) was given IP three times a week, 22 mg/kg in the first two weeks, then 44 mg/kg (10% BSA, 10% DMSO).

[1] = Three organ system sandwich assay, normal bone marrow viability by trypan blue exclusion; type: cell-based; conditions: human, read-out: reduction of viable NLBM cells
From the text: (§1) FIG. 1A, FIG. 1B, and FIG. 1C provide a scheme showing a sandwich three organ system assay, structures of lead compounds, and a graph of cell viability. Development of the three organ system sandwich assay yields structurally distinct promising anti-myeloma compounds. (a) To address the objective of identifying new clinically translatable treatments for the incurable cancer multiple myeloma (MM) that disrupt critical programs for this malignancy while sparing normal bone marrow, the inventors submitted hits from a mechanistically unbiased primary anti-MM screen to tests that modeled key components of the in vivo situation, initially separately, then in one multi-layered sandwich assay, followed by assessment of anti-MM activity in a panel of genetically heterogeneous MM cell lines.
(§2) Sandwich assay: HS-5 bone marrow stromal cells which secrete hematopoietic growth factors including multiple myeloma (MM) supporting IL-6 are grown to confluence on Transwell™ inserts before firefly luciferase expressing MM1.S cells are added and incubated overnight. […] Three to four days later MM luciferase activity is measured and viability of NL BM, constantly drug exposed for maximal stringency, is assessed by trypan blue exclusion using Vicell™ flow.

MM cell lines = assay: Anti-MM activity in a panel of genetically heterogeneous MM cell lines; type: cell-based
From the text: (§3) Cell lines: Multiple myeloma cell lines MM1.S, MM1.R, NCI-H929 were obtained from ATCC. MM cell lines KMS-12-PE and KMS-12-BM were from the JCRB, JJN-3 from DSMZ, and 5TGM1-luc cells were from Dr. Yoneda at the University of Texas Health Science at San Antonio. HRMM.09 cells were generated in the inventor's lab from a patient who developed refractory myeloma after treatment with steroids, IMiD, proteasome inhibitors, DNA alkylators, and anthracyclines. MM1.S-luc and HRMM.09-luc were generated in the inventor's laboratory by transduction with Cignal™ firefly luciferase control lentivirus obtained from Qiagen™ Lymphoma cells were generated by Mitchell Smith. All MM and lymphoma cells were grown in RPMI 1640 (NaCl 103.45 mM, NaCO3 23.81 mM, Na2HPO4 5.63 mM, KCl 5.33 mM, Ca(NO3)2 4H2O 0.424 mM, MgSO4 0.407 mM, pH around 7.2), supplemented with 10% fetal bovine serum, penicillin G (50 units ml^−1), and streptomycin (50 μM ml^−1). HS-5 cells were grown in appropriate cell culture media. Normal bone marrow cells were obtained from discarded bags of bone marrow grafts from healthy donors and either kept in RPMI with 25% (v/v) HS-5 supernatant for up to 14 days for isolated cytotoxicity assays or frozen and thawed for the sandwich assay. All cells were cultured at 37° C., 5% CO2 in humidified air.
Taking a mechanistically unbiased approach to drug discovery the inventors developed a sandwich assay that selected anti-MM compounds from a primary ATP-based 30,000 small molecule screen for lack of toxicity on normal bone marrow, stability towards liver enzymes, and activity in the context of cell barriers, bone marrow stromal support, and short, kidney-clearance-like exposure. CCF1172 emerged as one of three promising compounds and had sub-μM IC50 potency in all 8 MM cells tested and 6 of 7 lymphoma cell lines.

lymphoma cell lines = assay: Activity in lymphoma cell lines; type: cell-based; conditions: 6 of 7 lymphoma cell lines
From the text: as §3, with “air. […]” for “air.”

MM1.S-luc = assay: Three organ system sandwich assay, MM luciferase activity; type: cell-based
From the text: as §1, §2

refractory myeloma = conditions: cited from earlier work

Molecule: COc1ccc(N2C(=O)/C(=C\c3ccc([N+](=O)[O-])s3)SC2=S)cc1 [CCF642, reference compound]
- anti-MM activity in vivo (imaging, time to death or euthanasia) (5TGM1-luc cells): had anti-MM activity
- adverse events by clinical observations and weekly weight measurements (5TGM1-luc cells): No obvious adverse events

Molecule: O=C(Nc1cccc2ccccc12)c1cc(Cl)ccc1O [CCF1172]
- cytotoxicity at 15 μM [1]: < 30%
- potency in the MM cell line panel compared with CCF642 and CCF1118 (MM cell lines; MM cell line panel): less potent
- IC50 potency in MM cells (MM cell lines; all 8 MM cells tested): sub-μM
- activity against genetically heterogenous MM cell lines (MM cell lines; seven MM cell lines): uniform activity
- IC50 potency in lymphoma cell lines (lymphoma cell lines): sub-μM
- anti-MM activity in vivo (imaging, time to death or euthanasia) (5TGM1-luc cells): demonstrated in vivo activity; also recorded: had anti-MM activity
- adverse events by clinical observations and weekly weight measurements (5TGM1-luc cells): No obvious adverse events
- effectiveness in the sandwich assay compared with CCF642 and CCF1118 (MM1.S-luc): equally effective
- reduction of MM1.S-luc luminescence (MM1.S-luc; 15 μM): 70-80%

Molecule: Daratumumab: the first anti-CD38 antibody for use in myeloma
- overall response rate (refractory myeloma; single agent, refractory myeloma patients): about 30%
- survival relative to expected survival (refractory myeloma; two phase studies, patients with refractory myeloma): over twice of expected survival

— US20170057910A1, “ANTITUMOR NAPHTHALENYL BENZAMIDE DERIVATIVES” (THE CLEVELAND CLINIC FOUNDATION, priority 2015, published 2017)
